Measurements published in EP1145713A1, “TELOMERASE INHIBITORS” (KYOWA HAKKO KOGYO CO., LTD., priority 1999, dated 2000).

What was measured:
[1] = test system: human leukemia cell line CCRF-CEM; assay: Telomerase inhibitory activity in cell system (Test Example 3, TRAP assay of cell extract); assay type: cell-based
Experimental: After a test compound was allowed to contact with human leukemia cell line CCRF-CEM for 7 days, a cell extraction solution was prepared and the enzyme activity was measured by a known method (U.S. Patent 5,629,154). That is, the cell extraction solution was prepared using a buffer solution containing 0.5% CHAPS {3-[(3-cholamidopropyl)dimethylammonio]-1-propanesulfonate}. using the extraction solution, TRAP (Telomeric Repeat Amplification Protocol) assay was carried out (TRAPEZE™ ELISA Telomerase Detection Kit, manufactured by Oncor Co.) Inhibitory ratio was calculated based on the ratio of the enzyme activity in the extraction solution from the cells treated with the test compound relative to the enzyme activity in the extraction solution from the test compound-untreated cells.

[2] = test system: human leukemia cell line CCRF-CEM; assay: Induction of the reduction of telomere in cell system (Test Example 4); assay type: cell-based
Experimental: After a test compound was. allowed to contact with human leukemia cell line CCRF-CEM for 21 days, a chromosomal DNA was extracted and the telomere length was measured by a known method (Biotechniques, 23: 476-484 (1997)). That is, the extracted chromosomal DNA was adsorbed on a membrane, and hybridization was carried out by using a labeled oligonucleotide probe having a sequence complementary to the telomere sequence. The signal of the label on the membrane proportional to the telomere DNA length was detected and digitalized.

[3] = contact for 7 days, 8.9, 13 µmol/L
[4] = contact for 21 days, 13, 30 µmol/L
[5] = contact for 7 days, 2, 4.4 µmol/L
[6] = contact for 21 days, 2, 4.4 µmol/L

SMILES	cytotoxicity [1, 3]	inhibition of intracellular telomerase [1, 3]	cytotoxicity [2, 4]	telomere reduction [2, 4]	cytotoxicity [1, 5]	inhibition of intracellular telomerase [1, 5]	cytotoxicity ([1]; contact for 7 days, concentrations higher than 4.4 µmol/L)	cytotoxicity [2, 6]	telomere reduction [2, 6]	cytotoxicity ([2]; contact for 21 days, concentrations higher than 4.4 µmol/L)
CC1=C(CCC(=O)O)c2cc3[nH]c(cc4nc(cc5[nH]c(cc1n2)c(CCC(=O)O)c5C)C(C)=C4CCC(=O)O)c(CCC(=O)O)c3C [Compound 1]	no remarkable cytotoxicity was shown	inhibited intracellular telomerase	no remarkable cytotoxicity was shown	induced telomere reduction	–	–	–	–	–	–
C[n+]1ccc(-c2c3nc(c(-c4cc[n+](C)cc4)c4ccc([nH]4)c(-c4cc[n+](C)cc4)c4nc(c(-c5cc[n+](C)cc5)c5ccc2[nH]5)C=C4)C=C3)cc1 [TMPyP4]	–	–	–	–	no remarkable cytotoxicity was shown	did not inhibit telomerase	no cellular protein was recovered at higher concentrations because of the cytotoxicity	no remarkable cytotoxicity was shown	did not induce telomere reduction	no chromosomal DNA was recovered at higher concentrations because of the cytotoxicity
